Test results as given in the NIST ThermoML archive (doi:10.1016/j.tca.2014.03.027).

Legend:
[1] = 298.15 K; 101.33 kPa; Liquid; Vibrating tube method
[2] = molar heat capacity at constant pressure; conditions: 298.15 K; 101.33 kPa; Liquid; Small sample (50 mg) DSC
[3] = xn = mol fraction of the nth substance listed; conditions: 101 kPa, Liquid, Small sample (50 mg) DSC

NCc1ccccc1 [benzylamine]
Conditions	mass density [kg/m3]	molar heat capacity at constant pressure [J/K/mol]
[1]	978.337	–
[2]	–	206.74

NCc1ccccc1 [benzylamine] + CCCCCCC
[3], 293.15 K
Conditions	excess molar heat capacity [J/K/mol]
x1 = 0.1982	0.78
x1 = 0.2473	1.66
x1 = 0.2989	3.35
x1 = 0.3496	4.17
x1 = 0.3734	4.88
x1 = 0.3986	5.87
x1 = 0.4976	6.51
x1 = 0.5988	5.47
x1 = 0.6983	3.47
x1 = 0.7991	1.46

NCc1ccccc1 [benzylamine] + CCCCCO
excess molar heat capacity [J/K/mol], [3]
Conditions	293.15 K	298.15 K	308.15 K
x2 = 0.0495	2.15	2.31	2.12
x2 = 0.1528	5.18	5.79	5.71
x2 = 0.2765	8.64	8.73	8.42
x2 = 0.2967	9.27	9.48	8.89
x2 = 0.4512	12.51	12.28	11.2
x2 = 0.4994	13.7	13.25	12.08
x2 = 0.6006	13.71	13.13	11.91
x2 = 0.6516	12.63	12.04	10.9
x2 = 0.7019	11.57	10.98	9.9
x2 = 0.7998	9.04	8.54	7.76
x2 = 0.8493	7.39	7.06	6.31
x2 = 0.899	5.41	5.16	4.6
x2 = 0.9505	2.72	2.46	2.3

NCc1ccccc1 [benzylamine] + CCCO
excess molar heat capacity [J/K/mol], [3]
Conditions	293.15 K	298.15 K	308.15 K
x2 = 0.0665	1.89	2.55	2.84
x2 = 0.1004	2.96	3.37	3.45
x2 = 0.1986	6.26	6.74	6.5
x2 = 0.2994	9.38	9.67	9.53
x2 = 0.4007	11.35	11.45	11.18
x2 = 0.4477	11.83	11.95	11.58
x2 = 0.5497	13.34	13.25	12.85
x2 = 0.6032	13.04	12.99	12.57
x2 = 0.6515	12.75	12.91	12.84
x2 = 0.6998	12.05	12.14	11.7
x2 = 0.8014	9.42	9.48	9.06
x2 = 0.849	7.29	7.32	7.22
x2 = 0.9003	4.9	5.05	4.75

NCc1ccccc1 [benzylamine] + CO
excess molar heat capacity [J/K/mol], [3]
Conditions	293.15 K	298.15 K	308.15 K
x2 = 0.0537	1.16	1.26	1.59
x2 = 0.1106	2.61	2.84	3.36
x2 = 0.2041	5.02	5.43	6.08
x2 = 0.2963	7.9	8.16	8.87
x2 = 0.3518	9.32	9.77	10.2
x2 = 0.397	10.86	11.3	11.89
x2 = 0.4966	12.24	12.88	13.26
x2 = 0.5512	12.66	13.17	13.67
x2 = 0.5987	12.63	12.99	13.38
x2 = 0.6991	10.63	11.13	11.55
x2 = 0.7484	9.18	9.49	10
x2 = 0.7988	7.43	7.67	8.28
x2 = 0.849	4.92	5.29	5.72
x2 = 0.9009	3.22	3.49	3.8

CCCCCCC [heptane]
Conditions	molar heat capacity at constant pressure [J/K/mol]
[2]	223.91

CO [methanol]
Conditions	molar heat capacity at constant pressure [J/K/mol]
[2]	80.81

CCCCCO [pentan-1-ol]
Conditions	molar heat capacity at constant pressure [J/K/mol]
[2]	206.67

CCCO [propan-1-ol]
Conditions	molar heat capacity at constant pressure [J/K/mol]
[2]	143.41
